The source of these data is patent US11192877B2, “3-(5-hydroxy-1-oxoisoindolin-2-yl)piperidine-2,6-dione derivatives and uses thereof” (Novartis AG, priority 2018, dated 2021).

Structures are written as SMILES.

The first test deals with IKZF2 (Helios) (Homo sapiens, UniProt Q96SW2+Q9UKS7). Briefly: Prolabel quantification of IKZF2 protein levels in 293GT cells. Type of test: cell-based. The note with it: 24 h, Pro-label assay, 293GT cells, 10 μM, read-out: IKZF2 % protein reduction at 10 μM, 24 h.
Chain of IKZF2 (Helios) (Q9UKS7 whole entry): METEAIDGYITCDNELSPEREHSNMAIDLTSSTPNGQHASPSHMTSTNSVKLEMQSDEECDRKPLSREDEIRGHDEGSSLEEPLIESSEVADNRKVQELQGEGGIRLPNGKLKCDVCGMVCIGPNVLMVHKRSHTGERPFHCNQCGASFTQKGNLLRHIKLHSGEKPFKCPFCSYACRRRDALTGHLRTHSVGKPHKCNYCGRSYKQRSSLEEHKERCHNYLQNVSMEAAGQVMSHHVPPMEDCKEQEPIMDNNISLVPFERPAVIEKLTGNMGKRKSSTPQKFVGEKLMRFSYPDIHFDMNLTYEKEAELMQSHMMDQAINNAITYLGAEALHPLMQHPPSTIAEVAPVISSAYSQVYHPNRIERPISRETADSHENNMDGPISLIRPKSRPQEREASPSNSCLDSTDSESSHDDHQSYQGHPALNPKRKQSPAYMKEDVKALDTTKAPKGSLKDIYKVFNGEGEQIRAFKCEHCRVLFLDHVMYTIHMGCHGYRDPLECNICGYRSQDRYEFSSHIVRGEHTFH
Chain of IKZF2 (Helios) (Q96SW2 whole entry): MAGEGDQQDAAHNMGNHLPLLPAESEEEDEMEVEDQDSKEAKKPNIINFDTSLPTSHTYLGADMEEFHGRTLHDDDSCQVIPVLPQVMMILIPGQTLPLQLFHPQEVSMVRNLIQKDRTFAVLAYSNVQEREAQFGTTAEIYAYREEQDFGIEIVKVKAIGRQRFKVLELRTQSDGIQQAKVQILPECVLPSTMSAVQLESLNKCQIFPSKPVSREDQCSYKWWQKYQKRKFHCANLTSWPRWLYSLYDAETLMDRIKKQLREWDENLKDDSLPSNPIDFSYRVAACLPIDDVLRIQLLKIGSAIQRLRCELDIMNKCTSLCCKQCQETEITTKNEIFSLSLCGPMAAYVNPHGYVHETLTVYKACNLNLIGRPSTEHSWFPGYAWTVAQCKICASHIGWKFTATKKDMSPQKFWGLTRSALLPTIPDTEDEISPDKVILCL
Chain of IKZF2 (Helios) (Q16531 whole entry partner): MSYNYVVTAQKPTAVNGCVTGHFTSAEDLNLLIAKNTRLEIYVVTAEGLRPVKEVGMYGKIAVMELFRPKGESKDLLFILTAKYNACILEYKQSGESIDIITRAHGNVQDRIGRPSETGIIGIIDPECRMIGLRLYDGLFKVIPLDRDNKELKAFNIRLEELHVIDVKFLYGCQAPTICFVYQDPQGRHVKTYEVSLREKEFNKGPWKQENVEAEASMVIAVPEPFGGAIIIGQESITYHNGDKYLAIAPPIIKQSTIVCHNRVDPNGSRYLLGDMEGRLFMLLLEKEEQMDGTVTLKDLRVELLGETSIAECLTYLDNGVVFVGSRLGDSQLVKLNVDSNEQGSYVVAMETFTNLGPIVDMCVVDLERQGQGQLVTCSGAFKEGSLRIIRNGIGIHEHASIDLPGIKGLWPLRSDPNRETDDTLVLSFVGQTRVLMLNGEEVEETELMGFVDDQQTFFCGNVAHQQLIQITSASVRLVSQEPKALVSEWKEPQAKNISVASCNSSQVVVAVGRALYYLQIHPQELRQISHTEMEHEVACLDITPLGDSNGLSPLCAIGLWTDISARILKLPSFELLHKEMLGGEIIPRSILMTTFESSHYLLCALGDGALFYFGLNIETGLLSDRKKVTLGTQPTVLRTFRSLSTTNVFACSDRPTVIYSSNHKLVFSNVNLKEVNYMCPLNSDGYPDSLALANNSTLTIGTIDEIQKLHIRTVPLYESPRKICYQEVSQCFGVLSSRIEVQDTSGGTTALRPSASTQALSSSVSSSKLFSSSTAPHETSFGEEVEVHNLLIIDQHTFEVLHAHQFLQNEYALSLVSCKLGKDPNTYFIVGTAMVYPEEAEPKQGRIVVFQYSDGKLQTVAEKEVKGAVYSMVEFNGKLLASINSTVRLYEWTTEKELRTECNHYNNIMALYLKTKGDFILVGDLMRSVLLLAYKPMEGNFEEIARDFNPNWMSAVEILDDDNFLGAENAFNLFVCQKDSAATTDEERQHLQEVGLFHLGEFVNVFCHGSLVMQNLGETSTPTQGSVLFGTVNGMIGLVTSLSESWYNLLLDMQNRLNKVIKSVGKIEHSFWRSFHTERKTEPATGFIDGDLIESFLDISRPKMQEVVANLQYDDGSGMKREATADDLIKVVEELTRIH
Consider `O=C1CCC(N2Cc3cc(O[C@H]4CCCC[C@@H]4N4CC(Oc5cccc(F)c5)C4)ccc3C2=O)C(=O)N1` (stereo partly drawn) [I-121, 3-(5-(((1S,2S)-2-(3-(3-fluorophenoxy)azetidin-1-yl)cyclohexyl)oxy)-1-oxoisoindolin-2-yl)piperidine-2,6-dione], for which the IKZF2 % protein reduction at 10 µM came out at 94%. For the compound `O=C1CCC(N2Cc3cc(O[C@H]4CCCC[C@@H]4NCC4CC(F)(F)C4)ccc3C2=O)C(=O)N1` (stereo partly drawn) [I-122, 3-(5-(((1S,2S)-2-(((3,3-difluorocyclobutyl)methyl)amino)cyclohexyl)oxy)-1-oxoisoindolin-2-yl)piperidine-2,6-dione], the IKZF2 % protein reduction at 10 µM amounted to 84%. Take `COC1CCC(CN[C@H]2CCCC[C@@H]2Oc2ccc3c(c2)CN(C2CCC(=O)NC2=O)C3=O)CC1` (stereo partly drawn) [I-123, 3-(5-(((1S,2S)-2-(((4-methoxycyclohexyl)methyl)amino)cyclohexyl)oxy)-1-oxoisoindolin-2-yl)piperidine-2,6-dione]: the IKZF2 % protein reduction at 10 µM was 82%. As for `N#Cc1ccc(CN[C@H]2CCCC[C@@H]2Oc2ccc3c(c2)CN(C2CCC(=O)NC2=O)C3=O)cc1` (stereo partly drawn) [I-129, 4-((((1S,2S)-2-((2-(2,6-dioxopiperidin-3-yl)-1-oxoisoindolin-5-yl)oxy)cyclohexyl)amino)methyl)benzonitrile], the IKZF2 % protein reduction at 10 µM came to 70%. On the same count and under the same terms, in the case of `CN(Cc1ccc(C#N)cc1)[C@H]1CCCC[C@@H]1Oc1ccc2c(c1)CN(C1CCC(=O)NC1=O)C2=O` (stereo partly drawn) [I-130, 4-((((1S,2S)-2-((2-(2,6-dioxopiperidin-3-yl)-1-oxoisoindolin-5-yl)oxy)cyclohexyl)(methyl)amino)methyl)benzonitrile] it was 50%; in that of `CC(C)N[C@H]1CCCC[C@@H]1Oc1ccc2c(c1)CN(C1CCC(=O)NC1=O)C2=O` (stereo partly drawn) [I-131, 3-(5-(((1S,2S)-2-(isopropylamino)cyclohexyl)oxy)-1-oxoisoindolin-2-yl)piperidine-2,6-dione], 91%; in that of `N#Cc1cccc(CN[C@H]2CCCC[C@@H]2Oc2ccc3c(c2)CN(C2CCC(=O)NC2=O)C3=O)c1` (stereo partly drawn) [I-132, 3-((((1S,2S)-2-((2-(2,6-dioxopiperidin-3-yl)-1-oxoisoindolin-5-yl)oxy)cyclohexyl)amino)methyl)benzonitrile], 80%. As for `O=C1CCC(N2Cc3cc(O[C@H]4CCCC[C@@H]4NCC45CC(F)(C4)C5)ccc3C2=O)C(=O)N1` (stereo partly drawn) [I-133, 3-(5-(((1S,2S)-2-(((3-fluorobicyclo[1.1.1]pentan-1-yl)methyl)amino)cyclohexyl)oxy)-1-oxoisoindolin-2-yl)piperidine-2,6-dione], the IKZF2 % protein reduction at 10 µM came out at 81%.

For `O=C1CCC(N2Cc3cc(O[C@H]4CCCC[C@@H]4N4CC(Oc5cccnc5)C4)ccc3C2=O)C(=O)N1` (stereo partly drawn) [I-135, 3-(1-oxo-5-(((1S,2S)-2-(3-(pyridin-3-yloxy)azetidin-1-yl)cyclohexyl)oxy)isoindolin-2-yl)piperidine-2,6-dione], the IKZF2 % protein reduction at 10 µM was 92%. Consider `CCN(CC12CC(F)(C1)C2)[C@H]1CCC[C@@H]1Oc1ccc2c(c1)CN(C1CCC(=O)NC1=O)C2=O` (stereo partly drawn) [I-136, 3-(5-(((1S,2S)-2-(ethyl((3-fluorobicyclo[1.1.1]pentan-1-yl)methyl)amino)cyclopentyl)oxy)-1-oxoisoindolin-2-yl)piperidine-2,6-dione], for which the IKZF2 % protein reduction at 10 µM turned out to be 58%. With `O=C1CCN([C@H]2CCC[C@@H]2Oc2ccc3c(c2)CN(C2CCC(=O)NC2=O)C3=O)CC1` (stereo partly drawn) [I-137, 3-(1-oxo-5-(((1S,2S)-2-(4-oxopiperidin-1-yl)cyclopentyl)oxy)isoindolin-2-yl)piperidine-2,6-dione], the IKZF2 % protein reduction at 10 µM was determined as 80%. With `CC1(O)CCN([C@H]2CCC[C@@H]2Oc2ccc3c(c2)CN(C2CCC(=O)NC2=O)C3=O)CC1` (stereo partly drawn) [I-138, 3-(5-(((1S,2S)-2-(4-hydroxy-4-methylpiperidin-1-yl)cyclopentyl)oxy)-1-oxoisoindolin-2-yl)piperidine-2,6-dione], the IKZF2 % protein reduction at 10 µM was 83%. Regarding `O=C1CCC(N2Cc3cc(O[C@H]4CCC[C@@H]4N4CCC(O)C4)ccc3C2=O)C(=O)N1` (stereo partly drawn) [I-139, 3-(5-(((1S,2S)-2-(3-hydroxypyrrolidin-1-yl)cyclopentyl)oxy)-1-oxoisoindolin-2-yl)piperidine-2,6-dione], the IKZF2 % protein reduction at 10 µM turned out to be 83%. Same read-out and setting: to `CC1(O)CN([C@H]2CCC[C@@H]2Oc2ccc3c(c2)CN(C2CCC(=O)NC2=O)C3=O)C1` (stereo partly drawn) [I-141, 3-(5-(((1S,2S)-2-(3-hydroxy-3-methylazetidin-1-yl)cyclopentyl)oxy)-1-oxoisoindolin-2-yl)piperidine-2,6-dione] belongs 77%. With `CC(C)CN[C@H]1CCC[C@@H]1Oc1ccc2c(c1)CN(C1CCC(=O)NC1=O)C2=O` (stereo partly drawn) [I-142, 3-(5-(((1S,2S)-2-(isobutylamino)cyclopentyl)oxy)-1-oxoisoindolin-2-yl)piperidine-2,6-dione], the IKZF2 % protein reduction at 10 µM was 83%. `CCN(C)[C@H]1CCC[C@@H]1Oc1ccc2c(c1)CN(C1CCC(=O)NC1=O)C2=O` (stereo partly drawn) [I-143, 3-(5-(((1S,2S)-2-(ethyl(methyl)amino)cyclopentyl)oxy)-1-oxoisoindolin-2-yl)piperidine-2,6-dione]: the IKZF2 % protein reduction at 10 µM is 81%. Still for that read-out and setting: to `O=C1CCC(N2Cc3cc(O[C@H]4CCC[C@@H]4N4C[C@H]5COC[C@H]5C4)ccc3C2=O)C(=O)N1` (stereo partly drawn) [I-144, 3-(1-oxo-5-(((1S,2S)-2-((3aR,6aS)-tetrahydro-1H-furo[3,4-c]pyrrol-5(3H)-yl)cyclopentyl)oxy)isoindolin-2-yl)piperidine-2,6-dione] belongs 88%; to `O=C1CCC(N2Cc3cc(O[C@H]4CCC[C@@H]4NCc4ccccn4)ccc3C2=O)C(=O)N1` (stereo partly drawn) [I-145, 3-(1-oxo-5-(((1S,2S)-2-((pyridin-2-ylmethyl)amino)cyclopentyl)oxy)isoindolin-2-yl)piperidine-2,6-dione], 52%.

Turning to `O=C1CCC(N2Cc3cc(O[C@H]4CCC[C@@H]4N4CCCC4)ccc3C2=O)C(=O)N1` (stereo partly drawn) [I-146, 3-(1-oxo-5-(((1S,2S)-2-(pyrrolidin-1-yl)cyclopentyl)oxy)isoindolin-2-yl)piperidine-2,6-dione], the IKZF2 % protein reduction at 10 µM is 83%. On the same count and under the same terms, to `O=C1CCC(N2Cc3cc(O[C@H]4CCC[C@@H]4N4CC5(COC5)C4)ccc3C2=O)C(=O)N1` (stereo partly drawn) [I-147, 3-(5-(((1S,2S)-2-(2-oxa-6-azaspiro[3.3]heptan-6-yl)cyclopentyl)oxy)-1-oxoisoindolin-2-yl)piperidine-2,6-dione] belongs 44%. With `CC1(CN(CC2(C)COC2)[C@H]2CCC[C@@H]2Oc2ccc3c(c2)CN(C2CCC(=O)NC2=O)C3=O)COC1` (stereo partly drawn) [I-148, 3-(5-(((1S,2S)-2-(bis((3-methyloxetan-3-yl)methyl)amino)cyclopentyl)oxy)-1-oxoisoindolin-2-yl)piperidine-2,6-dione], the IKZF2 % protein reduction at 10 µM stood at 33%.

For `CC1CCN([C@H]2CCC[C@@H]2Oc2ccc3c(c2)CN(C2CCC(=O)NC2=O)C3=O)CC1` (stereo partly drawn) [I-149, 3-(5-(((1S,2S)-2-(4-methylpiperidin-1-yl)cyclopentyl)oxy)-1-oxoisoindolin-2-yl)piperidine-2,6-dione], the IKZF2 % protein reduction at 10 µM came out at 77%. With `O=C1CCC(N2Cc3cc(O[C@H]4CCC[C@@H]4NCc4ccncc4)ccc3C2=O)C(=O)N1` (stereo partly drawn) [I-151, 3-(1-oxo-5-(((1S,2S)-2-((pyridin-4-ylmethyl)amino)cyclopentyl)oxy)isoindolin-2-yl)piperidine-2,6-dione], the IKZF2 % protein reduction at 10 µM was determined as 53%. Regarding `COC1(C)CCN([C@H]2CCC[C@@H]2Oc2ccc3c(c2)CN(C2CCC(=O)NC2=O)C3=O)CC1` (stereo partly drawn) [I-152, 3-(5-(((1S,2S)-2-(4-methoxy-4-methylpiperidin-1-yl)cyclopentyl)oxy)-1-oxoisoindolin-2-yl)piperidine-2,6-dione], the IKZF2 % protein reduction at 10 µM turned out to be 82%. Same read-out and setting: in the case of `COC1CCN([C@H]2CCC[C@@H]2Oc2ccc3c(c2)CN(C2CCC(=O)NC2=O)C3=O)CC1` (stereo partly drawn) [I-154, 3-(5-(((1S,2S)-2-(4-methoxypiperidin-1-yl)cyclopentyl)oxy)-1-oxoisoindolin-2-yl)piperidine-2,6-dione] it was 83%; in that of `CCN(CC1COC1)[C@H]1CCC[C@@H]1Oc1ccc2c(c1)CN(C1CCC(=O)NC1=O)C2=O` (stereo partly drawn) [I-155, 3-(5-(((1S,2S)-2-(ethyl(oxetan-3-ylmethyl)amino)cyclopentyl)oxy)-1-oxoisoindolin-2-yl)piperidine-2,6-dione], 65%; in that of `O=C1CCC(N2Cc3cc(O[C@H]4CCC[C@@H]4N4Cc5ccccc5C4)ccc3C2=O)C(=O)N1` (stereo partly drawn) [I-156, 3-(5-(((1S,2S)-2-(isoindolin-2-yl)cyclopentyl)oxy)-1-oxoisoindolin-2-yl)piperidine-2,6-dione], 70%.

For `COC1CN([C@H]2CCC[C@@H]2Oc2ccc3c(c2)CN(C2CCC(=O)NC2=O)C3=O)C1` (stereo partly drawn) [I-157, 3-(5-(((1S,2S)-2-(3-methoxyazetidin-1-yl)cyclopentyl)oxy)-1-oxoisoindolin-2-yl)piperidine-2,6-dione], the IKZF2 % protein reduction at 10 µM came out at 61%. With `CCOC1(C)CCN([C@H]2CCC[C@@H]2Oc2ccc3c(c2)CN(C2CCC(=O)NC2=O)C3=O)CC1` (stereo partly drawn) [I-158, 3-(5-(((1S,2S)-2-(4-ethoxy-4-methylpiperidin-1-yl)cyclopentyl)oxy)-1-oxoisoindolin-2-yl)piperidine-2,6-dione], the IKZF2 % protein reduction at 10 µM is 82%.

Staying with this test, now noted: 24 h, read-out: IKZF2 % protein reduction at 10 μM, 24 h.
On to `O=C1CCC(N2Cc3cc(O[C@H]4CCC[C@@H]4NCc4cccnc4)ccc3C2=O)C(=O)N1` (stereo partly drawn) [I-150, 3-(1-oxo-5-(((1S,2S)-2-((pyridin-3-ylmethyl)amino)cyclopentyl)oxy)isoindolin-2-yl)piperidine-2,6-dione], for which the IKZF2 % protein reduction at 10 µM was determined as 51%. On to `CC1(C)CCN([C@H]2CCC[C@@H]2Oc2ccc3c(c2)CN(C2CCC(=O)NC2=O)C3=O)CC1` (stereo partly drawn) [I-153, 3-(5-(((1S,2S)-2-(4,4-dimethylpiperidin-1-yl)cyclopentyl)oxy)-1-oxoisoindolin-2-yl)piperidine-2,6-dione], for which the IKZF2 % protein reduction at 10 µM worked out at 85%.
